Data taken from the supplement of paper PMC10627819.

How the values were obtained:
Test in all cases: fitness (endpoint OD595 vs no drug) (fraction); higher = more growth
[1] = tested on: S. aureus Newman
Procedure, shortened: (§1)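 Fitness was defined as the optical density at the transition into stationary phase relative to the robust mean of no-drug control wells. Values were capped at 1. Cultures were started at OD595 0.01 in 384-well plates (30 µl, or 55 µl for S. pneumoniae) in TSB, LB Lennox or CY at 37 °C. OD595 was recorded every 30 min over 14 h, with the first reading subtracted as background.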

[2] = tested on: S. pneumoniae D39V
Procedure, shortened: as §1

[3] = tested on: S. aureus DSM 20231
Procedure, shortened: as §1

CO[C@@]12[C@H](COC(N)=O)C3=C(C(=O)C(C)=C(N)C3=O)N1C[C@@H]1N[C@@H]12 [Mitomycin C] + C/C(=C\C(=O)OCCCCCCCCC(=O)O)C[C@@H]1OC[C@H](C[C@@H]2O[C@H]2[C@@H](C)[C@H](C)O)[C@@H](O)[C@H]1O [Pseudomonic acid]
fitness, [1], one replicate
Conditions | first compound 0.0156 µg/mL | first compound 0.0312 µg/mL | first compound 0.0625 µg/mL
partner 0.0313 µg/mL | 0.0474 | 0.0196 | 0.0148
partner 0.0625 µg/mL | 0.0185 | 0.0244 | 0.0093
partner 0.125 µg/mL | 0.0351 | 0.0217 | 0.029

fitness, [2]
Conditions | first compound 0.001075 µg/mL | first compound 0.002 µg/mL | first compound 0.00215 µg/mL | first compound 0.004 µg/mL | first compound 0.0043 µg/mL | first compound 0.008 µg/mL
partner 0.03 µg/mL | 0.914 | 0.855 | 0.919 | 0.741 | 0.818 | 0.612
partner 0.06 µg/mL | 0.806 | 0.725 | 0.795 | 0.64 | 0.731 | 0.523
partner 0.12 µg/mL | 0.587 | 0.549 | 0.584 | 0.498 | 0.51 | 0.322

CO[C@@]12[C@H](COC(N)=O)C3=C(C(=O)C(C)=C(N)C3=O)N1C[C@@H]1N[C@@H]12 [Mitomycin C] + CC1(C)S[C@@H]2[C@H](NC(=O)Cc3ccccc3)C(=O)N2[C@H]1C(=O)O [Penicillin G]
fitness, [1]
Conditions | first compound 0.0156 µg/mL | first compound 0.0312 µg/mL | first compound 0.0625 µg/mL
partner 0.0195 µg/mL | 0.671 | 0.562 | 0.441
partner 0.039 µg/mL | 0.646 | 0.556 | 0.389
partner 0.078 µg/mL | 0.636 | 0.564 | 0.412

CO[C@@]12[C@H](COC(N)=O)C3=C(C(=O)C(C)=C(N)C3=O)N1C[C@@H]1N[C@@H]12 [Mitomycin C] + CC1=C\[C@@H](O)CC(=O)Cc2nc(co2)C(=O)N2CCC=C2C(=O)O[C@H](C(C)C)[C@H](C)/C=C/C(=O)NC\C=C\1 [Virginiamycin M1]
Conditions | fitness
[2], first compound 0.001075 µg/mL, partner 0.5 µg/mL | 0.966
[2], first compound 0.001075 µg/mL, partner 1 µg/mL | 0.929
[2], first compound 0.001075 µg/mL, partner 2 µg/mL | 0.928
[2], first compound 0.002 µg/mL, partner 2 µg/mL | 0.808
[2], first compound 0.00215 µg/mL, partner 0.5 µg/mL | 0.945
[2], first compound 0.00215 µg/mL, partner 1 µg/mL | 0.947
[2], first compound 0.00215 µg/mL, partner 2 µg/mL | 0.905
[2], first compound 0.004 µg/mL, partner 2 µg/mL | 0.783
[2], first compound 0.0043 µg/mL, partner 0.5 µg/mL | 0.856
[2], first compound 0.0043 µg/mL, partner 1 µg/mL | 0.839
[2], first compound 0.0043 µg/mL, partner 2 µg/mL | 0.835
[2], first compound 0.008 µg/mL, partner 2 µg/mL | 0.682
[3], first compound 0.0156 µg/mL, partner 0.0625 µg/mL | 0.697
[3], first compound 0.0156 µg/mL, partner 0.125 µg/mL | 0.712
[3], first compound 0.0156 µg/mL, partner 0.25 µg/mL | 0.747
[3], first compound 0.0312 µg/mL, partner 0.0625 µg/mL | 0.676
[3], first compound 0.0312 µg/mL, partner 0.125 µg/mL | 0.719
[3], first compound 0.0312 µg/mL, partner 0.25 µg/mL | 0.714
[3], first compound 0.0625 µg/mL, partner 0.0625 µg/mL | 0.576
[3], first compound 0.0625 µg/mL, partner 0.125 µg/mL | 0.579
[3], first compound 0.0625 µg/mL, partner 0.25 µg/mL | 0.578

fitness, one replicate
Conditions | partner 0.0625 µg/mL | partner 0.125 µg/mL | partner 0.15 µg/mL | partner 0.25 µg/mL | partner 0.3 µg/mL | partner 0.5 µg/mL | partner 1 µg/mL | partner 2 µg/mL
[1], first compound 0.0156 µg/mL | 0.71 | 0.702 | – | 0.681 | – | 0.66 | 0.667 | 0.593
[1], first compound 0.0312 µg/mL | 0.683 | 0.662 | – | 0.761 | – | 0.657 | 0.602 | 0.544
[1], first compound 0.0625 µg/mL | 0.564 | 0.597 | – | 0.583 | – | 0.564 | 0.54 | 0.433
[2], first compound 0.002 µg/mL | – | – | 0.927 | – | 0.894 | 0.936 | 0.878 | –
[2], first compound 0.004 µg/mL | – | – | 0.849 | – | 0.823 | 0.887 | 0.854 | –
[2], first compound 0.008 µg/mL | – | – | 0.791 | – | 0.799 | 0.767 | 0.626 | –
[3], first compound 0.0156 µg/mL | – | – | – | – | – | 0.774 | 0.825 | –
[3], first compound 0.0312 µg/mL | – | – | – | – | – | 0.681 | 0.701 | –
[3], first compound 0.0625 µg/mL | – | – | – | – | – | 0.515 | 0.611 | –

CO[C@@]12[C@H](COC(N)=O)C3=C(C(=O)C(C)=C(N)C3=O)N1C[C@@H]1N[C@@H]12 [Mitomycin C] + CCC(C)C1C(=O)NC(=C)C(=O)NC(C(=O)NC(CSCC(C(=O)N1)NC(=O)/C(=C/C)/NC(=O)C(C(C)CC)N)C(=O)NC2C(SCC(NC(=O)CNC(=O)C3CCCN3C2=O)C(=O)NC(CCCCN)C(=O)NC4C(SCC(NC(=O)CNC(=O)C(NC(=O)C(NC(=O)C(NC(=O)CNC4=O)C)CC(C)C)CCSC)C(=O)NC(CC(=O)N)C(=O)NC(CCSC)C(=O)NC(CCCCN)C(=O)NC5C(SCC6C(=O)NC(C(=O)NC(CSC(C(C(=O)N6)NC(=O)C(NC5=O)C)C)C(=O)NC(CO)C(=O)NC(C(C)CC)C(=O)NC(CC7=CN=CN7)C(=O)NC(C(C)C)C(=O)NC(=C)C(=O)NC(CCCCN)C(=O)O)CC8=CN=CN8)C)C)C)CC(C)C [Nisin]
fitness, [2], main component drawn
Conditions | first compound 0.001075 µg/mL | first compound 0.002 µg/mL | first compound 0.00215 µg/mL | first compound 0.004 µg/mL | first compound 0.0043 µg/mL | first compound 0.008 µg/mL
partner 0.4275 µg/mL | – | 0.982 | – | 0.838 | – | 0.636
partner 0.855 µg/mL | – | 0.943 | – | 0.844 | – | 0.538
partner 1.6 µg/mL | 0.0489 | – | 0.0715 | – | 0.0313 | –
partner 1.71 µg/mL | – | 0.0782 | – | 0.0797 | – | 0.0351
partner 3.2 µg/mL | 0.0397 | – | 0.038 | – | 0.0122 | –
partner 6.4 µg/mL | 0.0247 | – | 0.0066 | – | 0.0194 | –
